Results on 1 compound are retold here after patent US20060293351A1, “Promotion of wound healing” (priority 1999, published 2006).

Each structure is given as a SMILES string.

Data set [1] relates to T50 bladder carcinoma bearing mice. As to the kind of experiment: Wound healing in mice implanted with T50 bladder carcinoma tumors. Format: in vivo, C3H mice. As to conditions: diet containing 10 mg/kg or 5 mg/kg, 3 days prior to and 2 weeks after cell injection. The method, then: Similar visual results were obtained with mice implanted with T50 bladder carcinoma tumors (FIG. 4). C3H mice were divided into two groups of 6 mice each. The experimental group received a diet containing either 10 mg/kg or 5 mg/kg of Halofuginone 3 days prior to the injection of T50 bladder carcinoma cells and during 2 weeks after. […] The right side received 0.4*10^5 cells, and the left side received 2*10^5 cells. The experiment ended at day 17. FIG. 4 is a photograph of representative bladder carcinoma bearing mice which were untreated (top) or treated (bottom) with Halofuginone. […] Halofuginone was clearly able to promote wound healing in mice implanted with bladder carcinoma tumors.

Another data set deals with collagen type III. As to the kind of experiment: Collagen type III immunohistochemistry at the stricture site. Format: in vivo, rats. As to conditions: diet containing Halofuginone after coagulation current treatment. On the procedure:
Immunohistochemistry with antibodies to collagen type III was performed on biopsies taken from control, untreated rats, rats treated with coagulation current alone and rats fed a diet containing Halofuginone after coagulation current treatment. […] The experimental method was as follows. Rats were treated and sections of biopsy tissue were prepared as described previously in Example 4. Immunohistochemistry was performed with primary antibodies against collagen type III (BioGenex. San Ramon, Calif., USA) and a Histomouse SP kit (Zymed Laboratories Inc., South San Francisco, Calif., USA) for the secondary antibodies. The primary antibodies were used in a 1:1000 dilution and detection was performed with the Histomouse SP kit according to the instructions of the manufacturer.

For data set [2], the system named is incision at tumor implantation site. As to the kind of experiment: Wound healing in nude mice implanted with C6 rat glioma tumors. The data set is classed as in vivo, CD1-nude mice. The method, then: Tumors from C6 rat glioma cells were prepared and implanted in nude mice. Certain mice received Halofuginone, either orally or through i.p. (intra-peritoneal) administration. […] The experimental method was as follows. C6 rat glioma cells were cultured in DMEM supplemented with 5% FCS, 50 units/ml penicillin, 50 micrograms/ml streptomycin and 125 […]. Aggregation of cells into small spheroids of about 150 microns was initiated by replating cells from confluent cultures onto agar-coated bacteriological plates. After 4-5 days in culture, the suspension was transferred to a 250 ml spinner flask (Bellco, USA), and the medium was changed every other da for 30-40 days. All culture operations were performed at 37° C. and 5% CO2. Other conditions were as previously reported (Abramovitch et al., Br. J. Cancer, 77:440-447, 1998; Abramovitch et al., Cancer Res., 55:1956-62, 1995). For the implantation of the cells, male CD1-nude mice, two months old and 30 g body weight, were anesthetized. A single tumor, about 1 mm in diameter, was implanted in each mouse stubcutaneously in the lower back at the site of a 4 mm incision, using a Teflon tubing, as reposed previously (Abramovitch et al., Br. J. Cancer, 77:440-447, 1998). The incision was formed with fine surgical scissors and closed with an adhesive bandage. The mice were then divided into six groups. One group received Halofuginone by oral administration as previously described. Four groups received different concentrations of Halofuginone through i.p. injections every other day (0.1, 0.5, 2 and 4 micrograms of Halofuginone per injection). One group received sham injections (no Halofuginone). MRI microimaging of the implanted tumor was performed on a horizontal 4.7 T Bruker-Biospec spectrometer using an actively RF decoupled surface coil, 2 cm in diameter, and a bird-cage transmission coil, as reported previously (Abramovitch et al., Br. J. Cancer, 77:440-447, 1998; and Abramovitch et al., Magn. Reson. Med., 39:813-824, 1998). Mice were anesthetized and placed supine with the tumor located at the center of the surface coil. Gradient echo images were acquired with a slice thickness of 0.5 mm, TE of 10 ms, TR of 230 ms and 256×256 pixels matrix resulting in in-plane resolution of 110 microns. Growth of the capillary bed was reflected by reduction of the mean intensity at a region of interest of 1 mm surrounding the tumor (Abramovitch et al., Br. J. Cancer, 77:440-447, 1998; and Abramovitch et al., Magn. Reson. Med., 39:813-824, 1998). At the end of the experimental period, the mice were sacrificed, and sections were obtained and prepared as previously described above. […] Such a result is surprising since wounds located less than 1 mm from a tumor implantation site have been previously shown not to heal rapidly.

The next data set concerns collagen. As to the kind of experiment: Collagen content at the stricture site (Sirius red staining). Format: in vivo, rats. On the procedure: The experiments were performed as follows. First, urethral catherization was performed on tile rats with a 23 G Quik-Cath (Baxter, Ireland) sheath. A spinal needle was inserted into the sheath, and was used to apply a coagulation current at a level of 10 W to the outer end of the needle for 1 second at three locations, 8, 10 and 12 mm from the meatus, in order to produce urethral strictures. Halofuginone was given for 7 days starting at the day of stricture formation, either orally at concentrations of 1 ppm and 5 ppm in the diet, or by injection of 0.03% Halofuginone dissolved in 2% lignocaine directly into the urethra once a day. After 21 days, the rats were sacrificed and the sutures were reopened to determine the level of urethral stricture formation, at which time biopsies of the tissue were taken. The tissue was sectioned so that histological studies could be performed. Briefly, the tissue samples were collected into phosphate-buffered saline (PBS) and fixed overnight in 4% paraformaldehyde in PBS at 4° C. Serial 5 μm sections were prepared after the samples had been dehydrated in graded ethanol solutions, cleared in chloroform and embedded in Paraplast. Differential staining of collagenous and non-collagenous proteins was performed with 0.1% Sirius red and 0.1% fast green as a counter-stain in picric acid. […]

The subject of a further data set is chickens. As to conditions: in vivo; cited from earlier work.
Setting [3] is: orally or 4 micrograms per i.p. injection.
The mark [4] stands for this setting: particularly at the highest dose (4 micrograms per i.p. injection).

Turning to `O=C(CC1NCCC[C@H]1O)Cn1cnc2cc(Br)c(Cl)cc2c1=O` (stereo partly drawn) [Halofuginone], the wound healing result in data set [1] is reported as “greater wound healing”. In addition, in the data set with collagen type III, the “levels of collagen type III” value was “No significant changes”. The “complete re-epitheliazation (mice per group)” value in data set [2] (4 micrograms per i.p. injection every other day) and in data set [2] (administered orally) was 4 out of 5 in each case. Moreover, in data set [2] (all other groups (0.1, 0.5, 2 micrograms per i.p. injection; sham)), the “re-epitheliazation (mice per group)” value is recorded as 1 out of 5. Further, the “scarring at the site of the wound” value in data set [2] (setting [3]) is “no scarring”. The “wound healing despite presence of tumor” value in data set [2] (setting [3]) is recorded as “significantly improved wound healing”. Further, in data set [2] (setting [4]), the collagen content result was “decreased”. Also, the “expression of the collagen α1(I) gene” value in data set [2] (setting [4]) was “decreased”. Further, the “amount of collagen in the biopsies” value in the data set on collagen (given locally (FIG. 7D)) and with collagen (given orally (FIG. 7C)) was “decreased the amount of collagen” throughout. Further, the skin tearing result with chickens is “increased skin tearing”.
